For twelve compounds, Ki results are on record in patent US7125990B2, “Imidazolyl derivatives as corticotropin releasing factor inhibitors” (Bristol-Myers Squibb COmpany, priority 2001, dated 2006).

A word on the Ki: it is the dissociation constant of the complex between target and ligand, obtained from inhibition or displacement.

For this experiment, the target named is T1, CRF1 receptors (Homo sapiens, UniProt P34998).
T1 construct: endogenous in cells; host or cells: IMR-32 cells, transformed with 2.5 µM 5'-bromo-2'-deoxyuridine for 10 days; membrane preparation
T1 sequence (P34998 24-415): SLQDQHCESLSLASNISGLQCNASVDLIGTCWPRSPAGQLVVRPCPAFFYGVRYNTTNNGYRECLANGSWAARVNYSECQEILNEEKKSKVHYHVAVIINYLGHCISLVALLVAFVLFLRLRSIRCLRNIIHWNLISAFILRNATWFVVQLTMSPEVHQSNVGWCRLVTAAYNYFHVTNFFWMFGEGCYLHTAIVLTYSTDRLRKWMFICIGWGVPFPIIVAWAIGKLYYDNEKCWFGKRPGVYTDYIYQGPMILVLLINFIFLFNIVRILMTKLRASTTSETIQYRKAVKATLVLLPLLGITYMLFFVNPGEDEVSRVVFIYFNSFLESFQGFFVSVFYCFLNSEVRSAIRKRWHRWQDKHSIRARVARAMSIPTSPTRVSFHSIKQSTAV
Description: CRF1 receptor radioligand binding assay ([125I]-oCRF competition, IMR-32 cell membranes). The following applies: IMR-32 cell membranes, [125I]-oCRF 100 pM; read-out: Ki (CRF-1R). In a few lines:
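Buffer: Tris pH 7.2 with MgCl2, BSA, Triton X-100, aprotinin, leupeptin; reaction stopped with ice-cold wash and filtered. Nonspecific binding set with 10 μM oCRF.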
For the compound `CCCCN(Cc1ccccc1)Cc1c(C(F)(F)F)nc2n(-c3c(C)cc(C)cc3C)c3ccccc3n12` [Example 176, Benzyl-butyl-[2-trifluoromethyl-8-(2,4,6-trimethyl-phenyl)-8H-1,3a,8-triaza-cyclopenta[α]inden-3-ylmethyl]-amine], the Ki was under 10000 nM. The value for `CCCN(CC1CC1)C(=O)c1c(C(F)(F)F)nc2n1CCCN2c1c(C)cc(C)cc1C` [Example 55, 2-Trifluoromethyl-8-(2,4,6-trimethyl-phenyl)-5,6,7,8-tetrahydro-imidazo[1,2a]pyrimidine-3-carboxylic acid cyclopropylmethyl-propyl-amide] was under 10000 nM; that for `CCC=C(CCC)c1c(CC)nc2n1CCN2c1c(C)cc(C)cc1Cl` [Example 50, 1-(2-Chloro-4,6-dimethyl-phenyl)-6-ethyl-5-(1-propyl-but-1-enyl)-2,3-dihydro-1H-imidazo[1,2-a]imidazole] was under 100 nM. The value for `CCc1nc2n(c1C(=O)N(CCC1CC1)CCC(F)(F)F)CCN2c1c(C)cc(C)cc1C` [Example 17, 2-Ethyl-7-(2,4,6-trimethyl-phenyl)-6,7-dihydro-5H-imidazo[1,2-a]imidazole-3-carboxylic acid (2-cyclopropyl-ethyl)-(3,3,3-trifluoro-propyl)-amide] was under 1000 nM; that for `CCN(CCC1CC1)Cc1c(C(F)(F)F)nc2n(-c3c(C)cc(C)cc3C)c3ncccc3n12` [Example 229, (2-Cyclopropyl-ethyl)-ethyl-[2-trifluoromethyl-8-(2,4,6-trimethyl-phenyl)-8H-1,3a,7,8-tetraaza-cyclopenta[α]inden-3-ylmethyl]-amine] was under 1000 nM; that for “(2,2,3,3,3-Pentafluoro-propyl)-(2,2,2-trifluoro-ethyl)-[2-trifluoromethyl-8-(2,4,6-trimethyl-phenyl)-8H-1,3a,8-triaza-cyclopenta[α]inden-3-ylmethyl]-amine [Example 162]” was under 1000 nM. With `Cc1cc(C)c(N2CCCn3c2nc(C(F)(F)F)c3CN2CCCCC2)c(Cl)c1` [Example 99, 8-(2-Chloro-4,6-dimethyl-phenyl)-3-piperidin-1-ylmethyl-2-trifluoromethyl-5,6,7,8-tetrahydro-imidazo[1,2-a]pyrimidine], the Ki is under 1000 nM. On to `CCCN(CC1CC1)C(=O)c1c(CC)nc2n1CCN2c1c(C)cc(C)cc1C` [Example 2, 2-Ethyl-7-(2,4,6-trimethyl-phenyl)-6,7-dihydro-5H-imidazo[1,2-α]imidazole-3-carboxylic acid cyclopropylmethyl-propyl-amide], for which the Ki is under 100 nM. Turning to `CCCN(Cc1c(C(F)(F)F)nc2n1CCCN2c1c(C)cc(C)cc1C)CC1CCC1` [Example 77, Cyclobutylmethyl-propyl-[2-trifluoromethyl-8-(2,4,6-trimethyl-phenyl)-5,6,7,8-tetrahydro-imidazo[1,2-a]pyrimidin-3-ylmethyl]-amine], the Ki is under 100 nM. Turning to `CCc1nc2n(-c3c(C)cc(C)cc3C)c3ncccc3n2c1CN(CC)CC1CC1` [Example 250, Cyclopropylmethyl-ethyl-[2-ethyl-8-(2,4,6-trimethyl-phenyl)-8H-1,3a,7,8-tetraaza-cyclopenta[α]inden-3-ylmethyl]-amine], the Ki was under 1000 nM. As for `CCc1nc2n(c1C(=O)N(CCC(F)(F)F)Cc1ccccc1)CCN2c1c(C)cc(C)cc1C` [Example 18, 2-Ethyl-7-(2,4,6-trimethyl-phenyl)-6,7-dihydro-5H-imidazo[1,2-a]imidazole-3-carboxylic acid benzyl-(3,3,3-trifluoro-propyl)-amide], the Ki is under 1000 nM.

Consider `CCCN(Cc1c(C(F)(F)F)nc2n1CCCN2c1c(C)cc(C)cc1Cl)CC(F)(F)F` [Example 114, [8-(2-Chloro-4,6-dimethyl-phenyl)-2-trifluoromethyl-5,6,7,8-tetrahydro-imidazo[1,2-a]pyrimidin-3-ylmethyl]-propyl-(2,2,2-trifluoro-ethyl)-amine], for which the Ki is under 1000 nM.
